Measurements from patent US12059403B2, “Use of SWELL1 inhibitors and modulators to treat type 2 diabetes and obesity” (UNIVERSITY OF IOWA RESEARCH FOUNDATION, priority 2016, dated 2024).
Residue numbers refer to the chain shown, from its start.

Tests used:
β-cell VRAC [1] = target: T1, β-cell VRAC (Homo sapiens, UniProt Q8IWT6); assay: Perforated-patch clamp of glucose-activated VRAC in primary human β-cells; format: cell-based; settings: 35-37° C.
T1 construct: from tissue; host or cells: primary β-cells from human pancreatic islets
T1 sequence (Q8IWT6 1-810): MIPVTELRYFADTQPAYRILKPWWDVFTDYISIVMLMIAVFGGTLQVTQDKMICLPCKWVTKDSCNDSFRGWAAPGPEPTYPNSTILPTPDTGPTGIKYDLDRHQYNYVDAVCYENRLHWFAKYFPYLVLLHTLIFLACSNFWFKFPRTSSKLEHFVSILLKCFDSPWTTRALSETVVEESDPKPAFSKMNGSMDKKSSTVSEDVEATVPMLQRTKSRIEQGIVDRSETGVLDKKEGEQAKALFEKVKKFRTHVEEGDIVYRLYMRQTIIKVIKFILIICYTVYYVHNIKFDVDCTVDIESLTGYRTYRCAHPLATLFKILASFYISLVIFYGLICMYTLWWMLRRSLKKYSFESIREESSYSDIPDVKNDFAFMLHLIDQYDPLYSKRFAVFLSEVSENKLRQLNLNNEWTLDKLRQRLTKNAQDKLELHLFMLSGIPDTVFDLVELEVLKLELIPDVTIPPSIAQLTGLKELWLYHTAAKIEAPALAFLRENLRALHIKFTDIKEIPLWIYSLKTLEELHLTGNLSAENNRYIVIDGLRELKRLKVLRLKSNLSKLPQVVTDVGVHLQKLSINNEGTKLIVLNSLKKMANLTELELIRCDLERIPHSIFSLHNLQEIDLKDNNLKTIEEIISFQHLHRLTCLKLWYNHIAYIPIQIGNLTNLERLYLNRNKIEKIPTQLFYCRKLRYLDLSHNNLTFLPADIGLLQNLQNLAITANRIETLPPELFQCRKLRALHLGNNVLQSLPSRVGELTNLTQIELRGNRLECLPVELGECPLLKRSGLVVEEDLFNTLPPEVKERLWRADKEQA
Experimental: (§1) Having established that SWELL1 is required for this previously enigmatic depolarizing swell-activated Cl^− current in MIN6 cells, and in both mouse and human primary β-cells, whether physiologic glucose-mediated β-cell swelling is sufficient to activate SWELL1-mediated VRAC was investigated. First, β-cell size was measured by light microscopy in WT and SWELL1-deficient primary murine and human β-cells in response to glucose-stimulated swelling (at 35-37° C.). WT murine β-cells swell 6.8±1.6% in cross-sectional area upon perfusion of 16.7 mM glucose (from 1 mM basal glucose) and reach a maximum size at 12 minutes post glucose-stimulation, followed by a reduction in β-cell size, consistent with regulatory volume decrease (RVD). […] WT human β-cells show a similar trend, swelling 8.6±3.5%, followed by RVD. […] Next, the perforated-patch clamp technique was applied to primary β-cells at 35-37° C. in order to measure currents under the same physiological conditions that induce glucose-mediated β-cell swelling. β-cell VRAC activates in response to physiological increases in glucose in MIN6 cells and in both mouse and human β-cells, and is blocked by the selective VRAC inhibitor, DCPIB. […]

[2] = target: T2, volume-regulated anion current (VRAC) (Mus musculus, UniProt Q80WG5); assay: Patch-clamp of swell-activated current in 3T3-F442A adipocytes upon hypotonic swelling; format: cell-based; settings: murine 3T3-F442A adipocytes
T2 construct: present in the murine 3T3-F442A and human adipocyte cell lines (NPAD) upon hypotonic swelling; endogenous in cells; host or cells: 3T3-F442A adipocytes
T2 sequence (Q80WG5 1-810): T1 sequence (Q8IWT6 1-810) with P75S, G76S, I86V, I276A, A591V, I715V, T722A, N792S

SWELL1 = SWELL1 protein expression in cultured adipocytes; format: cell-based
[3] = target: T2, volume-regulated anion current (VRAC); assay: Patch-clamp of swell-activated current in mature murine iWAT adipocytes swelled by positive pressure; format: cell-based; settings: positive pressure swelling, whole-cell
Experimental: To identify a putative swell-activated ionic current in adipocytes, patch-clamp recordings were performed on mature murine adipocytes freshly isolated from inguinal white adipose tissue (iWAT). Ionic currents were measured in voltage-clamp mode while simultaneously swelling the adipocyte by applying positive pressure (˜3-5 mmHg, whole-cell configuration) via the patch-pipette. After a few minutes, activation of a large swell-activated current was observed. This current is outward rectifying, characterized by larger outward current at positive voltages compared to inward currents at negative voltages during sequential voltage ramps or voltage steps, with the current amplitude proportional to the extent of adipocyte swelling. This current reverses direction at −11.7±2.5 mV, which is near the reversal potential of chloride under these conditions (−11.5 mV, junction potential corrected). […] Finally, this swell-activated adipocyte current is blocked by 4-[(2-Butyl-6,7-dichloro-2-cyclopentyl-2,3-dihydro-1-oxo-1H-inden-5-yl)oxy]butanoic acid (DCPIB), a selective blocker of the volume-regulated anion current (VRAC) or volume-sensitive outwardly rectifying chloride current (VSOR).

β-cell VRAC [4] = target: T3, β-cell VRAC (Mus musculus, UniProt Q80WG5); assay: Perforated-patch clamp of glucose-activated VRAC in primary mouse β-cells; format: cell-based; settings: 35-37° C.
T3 construct: endogenous in cells; host or cells: MIN6 mouse insulinoma cells
T3 sequence (Q80WG5 1-810): T1 sequence (Q8IWT6 1-810) with P75S, G76S, I86V, I276A, A591V, I715V, T722A, N792S
Experimental: as §1

β-cell VRAC [5] = target: T3, β-cell VRAC; assay: Perforated-patch clamp of glucose-activated VRAC in MIN6 cells; format: cell-based; settings: 35-37° C.
Experimental: as §1

[6] = system: mice raised on a high-fat diet; assay: Glucose tolerance in mice raised on a high-fat diet; format: in vivo
[7] = target: T4, volume-regulated anion current (VRAC) (Homo sapiens, UniProt Q8IWT6); assay: Patch-clamp of swell-activated current in human adipocyte cell line (NPAD) upon hypotonic swelling; format: cell-based
T4 construct: present in the murine 3T3-F442A and human adipocyte cell lines (NPAD) upon hypotonic swelling; endogenous in cells; host or cells: human adipocyte cell line (NPAD)
T4 sequence (Q8IWT6 1-810): T1 sequence (Q8IWT6 1-810)

WT MIN6 cells = assay: Glucose-stimulated intracellular Ca2+ in WT MIN6 cells; format: cell-based, mouse; settings: 10 μM
Experimental: To determine whether SWELL1-mediated depolarizing Cl^− current is required to depolarize the β-cell membrane potential to the activation threshold of voltage-gated Ca^2+ channels (VGCC) essential for insulin granule fusion, glucose-stimulated intracellular Ca^2+ was measured in WT and SWELL1-deficient MIN6 β-cells, primary mouse and human β-cells.

[8] = system: WT primary murine β-cells; assay: Glucose-stimulated Ca2+ signaling (GCaMP6s imaging) in WT primary murine β-cells; format: cell-based; settings: 10 μM
Text: SWELL1-dependent Ca^2+ signaling was then examined in primary mouse and human β-cells. Adenoviruses expressing the genetically encoded Ca^2+-sensor GCaMP6s under control of the rat insulin promoter 1 (RIP1), either alone (Ad-RIP1-GCaMP6s), or in combination with Cre-recombinase (Ad-RIP1-Cre-P2A-GCaMP6s), were generated. This approach provides a robust β-cell restricted fluorescent Ca^2+ sensor while simultaneously allowing for β-cell targeted Cre-mediated SWELL1 deletion in cultured SWELL1^fl/fl islets isolated from SWELL1^fl/fl mice. […] A similar approach was used in human islets, whereby islets were co-transduced with Ad-RIP1-GCaMP6s and either Ad-U6-shSWELL1-mCherry or Ad-U6-shSCR-mCherry. Upon islet dissociation, only double-labelled GCaMP6s+/mCherry+ primary human β-cells were imaged. As with mouse primary β-cells, robust glucose-stimulated Ca^2+ transients in Ad-shSCR treated human primary β-cells were observe, and this is markedly abograted upon Ad-shSWELL1-mediated SWELL1 knock-down. […] In pancreatic β-cells, physiological intracellular Cl^− concentration is maintained at 34-36 mM by NKCC1 transporters to generate a depolarizing Cl^− current upon activation of a Cl^− conductance, since ECl−=˜−35 mV. […]

Compound	β-cell VRAC activated by physiological increases in glucose (β-cell VRAC [1])	swell-activated current [2]	SWELL1 protein expression (SWELL1)	swell-activated adipocyte current [3]	β-cell VRAC activated by physiological increases in glucose (β-cell VRAC [4])	β-cell VRAC activated by physiological increases in glucose (β-cell VRAC [5])	glucose tolerance associated with obesity [6]	swell-activated current [7]	glucose-stimulated Ca2+ signaling (WT MIN6 cells)	glucose-stimulated Ca2+ signaling [8]
CCCCC1(C2CCCC2)Cc2cc(OCCCC(=O)O)c(Cl)c(Cl)c2C1=O (stereo not shown) [DCPIB, 4-[(2-Butyl-6,7-dichloro-2-cyclopentyl-2,3-dihydro-1-oxo-1H-inden-5-yl)oxy]butanoic acid]	blocked	fully inhibited	induced a compensatory increase	blocked	blocked	blocked	normalized	fully inhibited	–	–
CCCCNc1cc(C(=O)O)cc(S(N)(=O)=O)c1Oc1ccccc1 [bumetanide]	–	–	–	–	–	–	–	–	fully inhibits	fully inhibits
